Measured values from PMC10518255, “A first-in-class pan-lysyl oxidase inhibitor impairs stromal remodeling and enhances gemcitabine response and survival in pancreatic cancer” (Nature Cancer, 2023).
pIC50: −log10 of the molar value. Where “and” joins values, the source holds several entries; their conditions need not be identical. Equal values may be shown once.

Tests used:
[1] = target: T1, Recombinant LOXL-4 (Homo sapiens, UniProt Q96JB6); test: Lysyl oxidase enzymatic activity, fluorescence-based assay, IC50; type: biochemical
T1 sequence (Q96JB6 25-756): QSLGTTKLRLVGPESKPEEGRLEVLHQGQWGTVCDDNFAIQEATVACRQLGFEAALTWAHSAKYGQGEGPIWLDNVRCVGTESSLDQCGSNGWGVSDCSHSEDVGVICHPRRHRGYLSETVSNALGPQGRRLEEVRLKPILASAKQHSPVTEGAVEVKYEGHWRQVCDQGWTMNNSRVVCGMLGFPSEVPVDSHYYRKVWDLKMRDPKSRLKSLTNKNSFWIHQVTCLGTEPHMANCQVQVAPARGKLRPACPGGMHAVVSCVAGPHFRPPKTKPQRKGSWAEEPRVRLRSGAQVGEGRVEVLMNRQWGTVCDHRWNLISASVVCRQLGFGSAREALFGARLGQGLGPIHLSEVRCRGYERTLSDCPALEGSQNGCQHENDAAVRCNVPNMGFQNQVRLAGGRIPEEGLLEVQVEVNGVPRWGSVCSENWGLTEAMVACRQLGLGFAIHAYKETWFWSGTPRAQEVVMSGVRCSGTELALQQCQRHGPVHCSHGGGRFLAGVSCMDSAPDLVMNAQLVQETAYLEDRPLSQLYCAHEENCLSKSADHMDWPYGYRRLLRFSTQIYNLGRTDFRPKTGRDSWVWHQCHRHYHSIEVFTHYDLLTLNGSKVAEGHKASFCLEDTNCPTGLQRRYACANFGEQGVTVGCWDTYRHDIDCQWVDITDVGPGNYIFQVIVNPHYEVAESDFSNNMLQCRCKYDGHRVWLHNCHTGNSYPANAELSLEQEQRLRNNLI
Source text: (§1) Data are presented as mean ± s.d. […] Data presented as mean ± s.d. […] Source data TEXT PRINTED IN THE PICTURE: (b) PXS-5505: Recombinant DAO IC50 (nM): >30,000; Recombinant SSAO/VAP1 IC50 (nM): >30,000; Recombinant MAO-A IC50 (nM): >30,000; Recombinant MAO-B IC50 (nM): >30,000 | (f) PXS-5505: Fibroblast LOX IC50 (nM): 4,930; Recombinant LOXL-1 IC50 (nM): 1,590; Recombinant LOXL-2 IC50 (nM): 570; Recombinant LOXL-3 IC50 (nM): 1,800; Recombinant LOXL-4 IC50 (nM): 190
In characterizing PXS-5505, the half-maximum inhibitory concentration (IC50) values for each of the lysyl oxidase family members were determined by measuring enzymatic activity using a fluorescence-based assay.
Data presented as mean values +/− SD. f. […] Data presented as mean values +/− SD. […] Data presented as mean values +/− SD. […] Data presented as mean values +/− SD. Ordinary one-way ANOVA for multiple comparison test performed. Source data

[2] = tested on: LOX; test: Time-dependent inhibition with pre-incubation 0-240 min (Fig. 2d); type: biochemical
Source text: as §1
Similar to other fluoroallylamine-based amine oxidase inhibitors, the mode of inhibition is assumed to be a two-step mechanism (Fig. 2c), with PXS-5505 reacting with the unique LTQ cofactor found within the active site. The fluoroallylamine facilitates the formation of a covalent, irreversible bond. […] Furthermore, in jump dilution experiments, there is no significant recovery of activity following rapid dilution (LOXL1 (5 ± 5% recovery, n = 4), LOXL2 (7 ± 1.2% recovery, n = 3) and LOXL3 (11 ± 2% recovery, n = 3)).

SMILES: Cl.Cl.NC/C=C(\F)CS(=O)(=O)c1cccc2cccnc12.O [PXS-5505, (Z)-3-fluoro-4-(quinolin-8-ylsulfonyl)but-2-en-1-amine dihydrochloride monohydrate]
- pIC50 [1]: 6.72
- LOXL4 activity, IC50 determination curve ([1]; log(Concentration) -4.52288, replicates, 30 µM): -2.4007 and -2.8906 and -3.2101 and -2.6712
- LOXL4 activity, IC50 determination curve ([1]; log(Concentration) -5, replicates, 10 µM): -1.4422 and -2.1664 and -2.1983 and -2.2521
- LOXL4 activity, IC50 determination curve ([1]; log(Concentration) -5.47712, replicates, 3.333 µM): 0.2192 and -0.9736 and -1.1972 and -0.2715
- LOXL4 activity, IC50 determination curve ([1]; log(Concentration) -5.95424, replicates, 1.111 µM): 5.544 and 5.363 and 4.947
- LOXL4 activity, IC50 determination curve ([1]; log(Concentration) -6.43136, replicates, 0.3704 µM): 33.33 and 26.333 and 28.4205
- LOXL4 activity, IC50 determination curve ([1]; log(Concentration) -6.90849, replicates, 0.1235 µM): 72.8948 and 68.0171 and 53.7035 and 49.075
- LOXL4 activity, IC50 determination curve ([1]; log(Concentration) -7.38561, replicates, 0.04115 µM): 94.28 and 92.9061 and 89.562 and 72.7789
- LOXL4 activity, IC50 determination curve ([1]; log(Concentration) -7.86273, replicates, 0.01372 µM): 99.5304 and 98.9021 and 84.3689
- LOXL4 activity, IC50 determination curve ([1]; log(Concentration) -8.33985, replicates, 0.004572 µM): 103.556 and 102.033 and 92.1549
- LOXL4 activity, IC50 determination curve ([1]; log(Concentration) -8.81697, replicates, 0.001524 µM): 95.8121
- LOXL4 activity, IC50 determination curve ([1]; log(Concentration) -9.29409, replicates, 0.000508 µM): 96.0112
- activity at 1.111 µM ([1]; read-out: LOXL4 activity, IC50 determination curve, log(Concentration) -5.95424, replicates): 6.34%
- activity at 0.3704 µM ([1]; read-out: LOXL4 activity, IC50 determination curve, log(Concentration) -6.43136, replicates): 39.8%
- activity at 0.01372 µM ([1]; read-out: LOXL4 activity, IC50 determination curve, log(Concentration) -7.86273, replicates): 101%
- activity at 0.004572 µM ([1]; read-out: LOXL4 activity, IC50 determination curve, log(Concentration) -8.33985, replicates): 106%
- activity at 0.001524 µM ([1]; read-out: LOXL4 activity, IC50 determination curve, log(Concentration) -8.81697, replicates): 104%
- activity at 0.000508 µM ([1]; read-out: LOXL4 activity, IC50 determination curve, log(Concentration) -9.29409, replicates): 105%
- LOX specific activity ([2]; pre-incubation 0 min, log conc -4.52288): 32.1036
- LOX specific activity ([2]; pre-incubation 0 min, log conc -5): 64.3382
- LOX specific activity ([2]; pre-incubation 0 min, log conc -5.47756): 84.6897
- LOX specific activity ([2]; pre-incubation 0 min, log conc -5.95468): 91.8109
- LOX specific activity ([2]; pre-incubation 0 min, log conc -6.4318): 92.4662
- LOX specific activity ([2]; pre-incubation 0 min, log conc -6.91009): 98.7719
- LOX specific activity ([2]; pre-incubation 0 min, log conc -7.3851): 96.7913
- LOX specific activity ([2]; pre-incubation 0 min, log conc -7.86328): 102.005
- LOX specific activity ([2]; pre-incubation 0 min, log conc -8.34008): 102.107
- LOX specific activity ([2]; pre-incubation 0 min, log conc -8.81816): 98.6554
- LOX specific activity ([2]; pre-incubation 0 min, log conc -9.29414): 106.228
- LOX specific activity ([2]; pre-incubation 0 min, log conc -9.77126): 108.063
- LOX specific activity ([2]; pre-incubation 15 min, log conc -4.52288): 9.177
- LOX specific activity ([2]; pre-incubation 15 min, log conc -5): 32.3488
- LOX specific activity ([2]; pre-incubation 15 min, log conc -5.47756): 65.4986
- LOX specific activity ([2]; pre-incubation 15 min, log conc -5.95468): 81.8309
- LOX specific activity ([2]; pre-incubation 15 min, log conc -6.4318): 89.7677
- LOX specific activity ([2]; pre-incubation 15 min, log conc -6.91009): 93.4569
- LOX specific activity ([2]; pre-incubation 15 min, log conc -7.3851): 96.3684
- LOX specific activity ([2]; pre-incubation 15 min, log conc -7.86328): 90.7581
- LOX specific activity ([2]; pre-incubation 15 min, log conc -8.34008): 96.0493
- LOX specific activity ([2]; pre-incubation 15 min, log conc -8.81816): 95.7037
- LOX specific activity ([2]; pre-incubation 15 min, log conc -9.29414): 99.1403
- LOX specific activity ([2]; pre-incubation 15 min, log conc -9.77126): 98.9675
- LOX specific activity ([2]; pre-incubation 30 min, log conc -4.52288): 2.6085
- LOX specific activity ([2]; pre-incubation 30 min, log conc -5): 10.9871
- LOX specific activity ([2]; pre-incubation 30 min, log conc -5.47756): 44.0429
- LOX specific activity ([2]; pre-incubation 30 min, log conc -5.95468): 69.7571
- LOX specific activity ([2]; pre-incubation 30 min, log conc -6.4318): 82.4602
- LOX specific activity ([2]; pre-incubation 30 min, log conc -6.91009): 92.2531
- LOX specific activity ([2]; pre-incubation 30 min, log conc -7.3851): 91.8445
- LOX specific activity ([2]; pre-incubation 30 min, log conc -7.86328): 100.827
- LOX specific activity ([2]; pre-incubation 30 min, log conc -8.34008): 94.7736
- LOX specific activity ([2]; pre-incubation 30 min, log conc -8.81816): 95.6095
- LOX specific activity ([2]; pre-incubation 30 min, log conc -9.29414): 101.078
- LOX specific activity ([2]; pre-incubation 30 min, log conc -9.77126): 104.925
- LOX specific activity ([2]; pre-incubation 60 min, log conc -4.52288): -1.9
- LOX specific activity ([2]; pre-incubation 60 min, log conc -5): 1.453
- LOX specific activity ([2]; pre-incubation 60 min, log conc -5.47756): 20.7125
- LOX specific activity ([2]; pre-incubation 60 min, log conc -5.95468): 53.0465
- LOX specific activity ([2]; pre-incubation 60 min, log conc -6.4318): 78.5482
- LOX specific activity ([2]; pre-incubation 60 min, log conc -6.91009): 90.7227
- LOX specific activity ([2]; pre-incubation 60 min, log conc -7.3851): 95.8188
- LOX specific activity ([2]; pre-incubation 60 min, log conc -7.86328): 101.294
- LOX specific activity ([2]; pre-incubation 60 min, log conc -8.34008): 102.525
- LOX specific activity ([2]; pre-incubation 60 min, log conc -8.81816): 100.564
- LOX specific activity ([2]; pre-incubation 60 min, log conc -9.29414): 101.737
- LOX specific activity ([2]; pre-incubation 60 min, log conc -9.77126): 102.743
- LOX specific activity ([2]; pre-incubation 120 min, log conc -4.52288): 2.378
- LOX specific activity ([2]; pre-incubation 120 min, log conc -5): 0.7896
- LOX specific activity ([2]; pre-incubation 120 min, log conc -5.47756): 6.366
- LOX specific activity ([2]; pre-incubation 120 min, log conc -5.95468): 21.6941
- LOX specific activity ([2]; pre-incubation 120 min, log conc -6.4318): 62.059
- LOX specific activity ([2]; pre-incubation 120 min, log conc -6.91009): 92.1986
- LOX specific activity ([2]; pre-incubation 120 min, log conc -7.3851): 91.1259
- LOX specific activity ([2]; pre-incubation 120 min, log conc -7.86328): 98.8619
- LOX specific activity ([2]; pre-incubation 120 min, log conc -8.34008): 100.244
- LOX specific activity ([2]; pre-incubation 120 min, log conc -8.81816): 100.045
- LOX specific activity ([2]; pre-incubation 120 min, log conc -9.29414): 96.9572
- LOX specific activity ([2]; pre-incubation 120 min, log conc -9.77126): 100.753
- LOX specific activity ([2]; pre-incubation 240 min, log conc -4.52288): -3.18
- LOX specific activity ([2]; pre-incubation 240 min, log conc -5): 0.3645
- LOX specific activity ([2]; pre-incubation 240 min, log conc -5.47756): 8.283
- LOX specific activity ([2]; pre-incubation 240 min, log conc -5.95468): 6.894
- LOX specific activity ([2]; pre-incubation 240 min, log conc -6.4318): 35.306
- LOX specific activity ([2]; pre-incubation 240 min, log conc -6.91009): 69.9646
- LOX specific activity ([2]; pre-incubation 240 min, log conc -7.3851): 87.2279
- LOX specific activity ([2]; pre-incubation 240 min, log conc -7.86328): 94.5493
- LOX specific activity ([2]; pre-incubation 240 min, log conc -8.34008): 99.3255
- LOX specific activity ([2]; pre-incubation 240 min, log conc -8.81816): 102.317
- LOX specific activity ([2]; pre-incubation 240 min, log conc -9.29414): 102.769
- LOX specific activity ([2]; pre-incubation 240 min, log conc -9.77126): 103.159
- time-dependent inhibition of LOX specific activity ([2]; pre-incubation time 0–240 min): increased potency with increased pre-incubation time
